Measurements from US20140295425A1, “Diagnosis for Alzheimer's Disease” (The University of Birmingham, priority 2011, published 2014).

System: lymphocytes
Assay: Two-colour microarray gene expression analysis of lymphocytes treated with rapamycin vs untreated
Type: cell-based, human
Conditions: rapamycin 100 ng/ml, 24 h
Experimental: Two-colour microarray based gene expression analysis (Agilent Technologies) was used to identify genes that were differentially expressed in lymphocytes treated with rapamycin compared to lymphocytes that were left untreated. The microarray used was the Agilent Whole Human Genome Microarray: 4×44K.
Two parallel lymphocyte cultures were set up in RPMI medium supplemented with 10% FCS at a concentration of 1×10^6 cells per 1 ml of culture media. Phytohaemaglutinin (PHA) was added to the cultures at a final concentration of 22 μg/ml to activate the lymphocytes. Cultures were incubated for 48 hours at 37° C. in a humidified atmosphere containing 5% CO2. After 48 hours culture, one culture was treated with 100 ng/ml rapamycin, while the other untreated culture was kept as a control. After a further 24 hours, the cells of each lymphocyte culture were harvested by centrifugation.
RNA was extracted from the lymphocyte pellets using TRI Reagent® in accordance with standard protocol. To ensure that there was no DNA contamination, the RNA was treated with DNase (Qiagen) according to the manufacturer's standard protocol. RNA quality was determined by RNA nano-chip analysis using an Agilent 2100 Bioanalyser, also according to standard protocol. The RNA quality of the samples ranged from 8-10 RNA Integrity Number (RIN), indicative of good quality RNA suitable for gene expression microarray.
200 ng of RNA was converted to cDNA with the low-input quick amplification labelling kit (Agilent, 5190-2305). Spike Mix A and B were prepared separately. For each, the spike mix was thawed and vortexed, incubated at 37° C. for 5 minutes, and diluted in the provided dilution buffer (see Table 3 for dilution protocol). 2 μl of diluted spike mix A and spike mix B were added to 200 ng of RNA in a 1.5 μl volume from the rapamycin-treated and untreated lymphocytes respectively. […] The samples were incubated at 65° C. for 10 minutes, and placed on ice for 5 minutes. 4.7 μl of the cDNA master mix was added per sample, and samples incubated at 40° C. for 2 hours; 70° C. for 15 minutes; and placed on ice for 5 minutes.
The low-input quick amplification labelling kit (Agilent, 5190-2305) was used to convert the cDNA to labelled cRNA. Spike Mix A samples were added to transcription master mix prepared with Cyanine 3-CTP (green), whereas Spike Mix B samples were added to transcription master mix prepared with Cyanine 5-CTP (red). 6 μl of the transcription master mix was added per 10 μl cDNA sample, and incubated at 40° C. for 2 hours.
The cRNA was purified by standard RNeasy mini column protocol (Qiagen). The cRNA was quantified with a nanodrop spectrophotometer on the Microarray setting. The yield and specific activity of the cRNA samples were calculated as follows: […]
825 ng of labelled cRNA was added to various fragmentation components as described in Table 7, incubated at 60° C. for 30 minutes, and cooled on ice for 1 minute. 55 μl of GEx Hybridisation buffer HI-RPM was subsequently added to stop fragmentation. The samples were mixed, centrifuged at 13,000 rotations per minute (RPM) for 1 minute, and placed on ice in preparation for microarray assembly. The microarray of choice was the 4×44K Agilent Whole Human Genome Microarray. A clean gasket slide was placed into the chamber base, 100 μl of sample dispensed per well, and array placed onto the gasket slide to facilitate hybridisation. The gasket and microarray slides were clamped together and incubated at 65° C. for 17 hours.
Following hybridisation, the microarrays were washed in various wash solutions as described in Table 8. To summarise, the microarrays were removed from the hybridisation assembly and carefully separated from the gasket slide whilst fully submersed in wash buffer 1. Slides were washed for 1 minute, transferred to wash buffer 2 at 37° C. for 1 minute, and washed in acetonitrile for 10 seconds. The final wash was in stabilisation and drying solution for 30 seconds. […]

## CO[C@H]1C[C@@H]2CC[C@@H](C)[C@@](O)(O2)C(=O)C(=O)N2CCCC[C@H]2C(=O)O[C@H]([C@H](C)C[C@@H]2CC[C@@H](O)[C@H](OC)C2)CC(=O)[C@H](C)/C=C(\C)[C@@H](O)[C@@H](OC)C(=O)[C@H](C)C[C@H](C)/C=C/C=C/C=C/1C [rapamycin]
Gene ACPP (up-regulated)
  Fold change: 1.769
Gene ACSL6 (down-regulated)
  Fold change: −1.795
Gene ACSS1 (up-regulated)
  Fold change: 1.212
Gene ADAMTS15 (up-regulated)
  Fold change: 1.095
Gene ADAMTS16 (down-regulated)
  Fold change: −1.497
Gene ADH6 (up-regulated)
  Fold change: 1.177
Gene ADSSL1 (up-regulated)
  Fold change: 0.8544
Gene ALDH1A3 (up-regulated)
  Fold change: 1.792
Gene AMY1C, symbol AMY1A (includes others) (up-regulated)
  Fold change: 0.8998
Gene AP1S1 (down-regulated)
  Fold change: −1.488
Gene B3GALT4 (up-regulated)
  Fold change: 1.175
Gene B4GALT6 (up-regulated)
  Fold change: 1.07
Gene BMP7 (up-regulated)
  Fold change: 1.123
Gene CA6 (up-regulated)
  Fold change: 1.029
Gene CCL1 (up-regulated)
  Fold change: 1.135
Gene CCL2 (down-regulated)
  Fold change: −2.661
Gene CCL8 (down-regulated)
  Fold change: −2.62
Gene CCL26 (up-regulated)
  Fold change: 1.662
Gene COL8A2 (down-regulated)
  Fold change: −1.411
Gene CROT (down-regulated)
  Fold change: −2.4978
Gene CTSF (up-regulated)
  Fold change: 1.61
Gene CYP3A5 (up-regulated)
  Fold change: 1.214
Gene CYP4F3 (up-regulated)
  Fold change: 1.395
Gene CYP4V2 (up-regulated)
  Fold change: 0.8253
Gene CYP4X1 (up-regulated)
  Fold change: 1.062
Gene DCLK1 (up-regulated)
  Fold change: 1.437
Gene DHRS3 (up-regulated)
  Fold change: 0.8206
Gene DTD1 (up-regulated)
  Fold change: 1.511
Gene DUSP13 (up-regulated)
  Fold change: 1.045
Gene DYNC2LI1 (down-regulated)
  Fold change: −1.902
Gene DZIP3 (up-regulated)
  Fold change: 0.8533
Gene EGLN3 (down-regulated)
  Fold change: −1.959
Gene F9 (up-regulated)
  Fold change: 1.605
Gene FGF2 (down-regulated)
  Fold change: −2.241
Gene FGF18 (down-regulated)
  Fold change: −1.255
Gene FJX1 (down-regulated)
  Fold change: −2.328
Gene FUT9 (down-regulated)
  Fold change: −1.648
Gene GBP3 (up-regulated)
  Fold change: 0.8462
Gene GDA (up-regulated)
  Fold change: 1.596
Gene GNAL (up-regulated)
  Fold change: 0.996
Gene GPAM (down-regulated)
  Fold change: −1.231
Gene GPX6 (up-regulated)
  Fold change: 1.702
Gene HCK (down-regulated)
  Fold change: −1.403
Gene HSD17B13 (up-regulated)
  Fold change: 1.51
Gene IGBP1 (up-regulated)
  Fold change: 0.8038
Gene IGF2 (up-regulated)
  Fold change: 1.185
Gene IL1B (up-regulated)
  Fold change: 1.136
Gene IL1RN (up-regulated)
  Fold change: 1.004
Gene IL2 (down-regulated)
  Fold change: −1.407
Gene IL3 (down-regulated)
  Fold change: −2.123
Gene IL6 (down-regulated)
  Fold change: −1.3333
Gene IL10 (down-regulated)
  Fold change: −2.727
Gene INPP5E (down-regulated)
  Fold change: −1.4981
Gene INPP5K (up-regulated)
  Fold change: 0.7753
Gene JAK1 (up-regulated)
  Fold change: 0.8726
Gene LEFTY1 (up-regulated)
  Fold change: 1.067
Gene LEP (up-regulated)
  Fold change: 1.281
Gene LIPF (up-regulated)
  Fold change: 1.349
Gene LOXL3 (down-regulated)
  Fold change: −1.3654
Gene MMP9 (up-regulated)
  Fold change: 1.152
Gene MOXD1 (down-regulated)
  Fold change: −2.421
Gene MPP4 (up-regulated)
  Fold change: 0.8611
Gene MTHFR (up-regulated)
  Fold change: 0.8153
Gene OGN (up-regulated)
  Fold change: 1.567
Gene PAOX (up-regulated)
  Fold change: 0.8572
Gene PDE1A (up-regulated)
  Fold change: 1.31
Gene PDE4C (up-regulated)
  Fold change: 1.017
Gene PDK4 (up-regulated)
  Fold change: 0.8187
Gene PIM1 (up-regulated)
  Fold change: 1.101
Gene PITPNM2 (up-regulated)
  Fold change: 0.8702
Gene PLAT (up-regulated)
  Fold change: 0.8897
Gene PLB1 (up-regulated)
  Fold change: 1.566
Gene PLD1 (up-regulated)
  Fold change: 0.9334
Gene PLGLB1, symbol PLGLB1/PLGLB2 (up-regulated)
  Fold change: 0.9441
Gene PON3 (up-regulated)
  Fold change: 1.013
Gene PRKG1 (down-regulated)
  Fold change: −1.116
Gene PRODH2 (up-regulated)
  Fold change: 1.716
Gene PRSS23 (up-regulated)
  Fold change: 1.012
Gene PTGS2 (down-regulated)
  Fold change: −1.2871
Gene PYCR1 (down-regulated)
  Fold change: −1.294
Gene RAB37 (up-regulated)
  Fold change: 0.9052
Gene RAB39 (up-regulated)
  Fold change: 0.8095
Gene RND3 (up-regulated)
  Fold change: 0.9124
Gene RPS6KB1 (up-regulated)
  Fold change: 1.481
Gene RRAD (down-regulated)
  Fold change: −1.632
Gene SGTA (down-regulated)
  Fold change: −1.403
Gene SPP1 (up-regulated)
  Fold change: 1.471
Gene SPRED2 (up-regulated)
  Fold change: 0.825
Gene ST3GAL6 (up-regulated)
  Fold change: 1.175
Gene ST6GALNAC2 (down-regulated)
  Fold change: −1.242
Gene STK31 (up-regulated)
  Fold change: 1.092
Gene STS (up-regulated)
  Fold change: 0.8677
Gene TAC1 (down-regulated)
  Fold change: −1.262
Gene TDH (up-regulated)
  Fold change: 1.414
Gene THBS1 (down-regulated)
  Fold change: −1.359
Gene TRIB1 (up-regulated)
  Fold change: 1.07
Gene UBE2M (down-regulated)
  Fold change: −1.504
Gene ULK2 (up-regulated)
  Fold change: 1.069
Gene WWP2 (up-regulated)
  Fold change: 0.9105
Gene ZADH2 (up-regulated)
  Fold change: 1.005
